In PubChem BioAssay (NCI):
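GI50: concentration for 50% inhibition of growth. The concentration for full growth arrest is given as TGI.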

Tests used:
Assay in all cases: NCI anticancer screen, dose series, 384-well format
MOLT-4 leukemia = tested on: MOLT-4 leukemia
MDA-MB-468 breast = tested on: MDA-MB-468 breast
M14 melanoma = tested on: M14 melanoma
IGROV1 ovarian = tested on: IGROV1 ovarian
PC-3 prostate = tested on: PC-3 prostate
ACHN renal = tested on: ACHN renal
LOX IMVI melanoma = tested on: LOX IMVI melanoma
NCI-H460 NSCLC = tested on: NCI-H460 NSCLC
MALME-3M melanoma = tested on: MALME-3M melanoma
NCI-H23 lung = tested on: NCI-H23 lung
U251 glioblastoma = tested on: U251 glioblastoma
NCI-H522 lung = tested on: NCI-H522 lung
BT-549 breast = tested on: BT-549 breast
MDA-MB-435 melanoma = tested on: MDA-MB-435 melanoma
SF-295 CNS = tested on: SF-295 CNS
786-0 renal = tested on: 786-0 renal
SNB-19 CNS = tested on: SNB-19 CNS
NCI-H322M lung = tested on: NCI-H322M lung
A498 renal = tested on: A498 renal
UACC-62 melanoma = tested on: UACC-62 melanoma
HCC-2998 colon = tested on: HCC-2998 colon
SR leukemia = tested on: SR leukemia
OVCAR-4 ovarian = tested on: OVCAR-4 ovarian
CAKI-1 renal = tested on: CAKI-1 renal
KM12 colon = tested on: KM12 colon
UO-31 renal = tested on: UO-31 renal
EKVX NSCLC = tested on: EKVX NSCLC
NCI/ADR-RES ovarian = tested on: NCI/ADR-RES ovarian
HOP-92 NSCLC = tested on: HOP-92 NSCLC
HS 578T breast = tested on: HS 578T breast
SF-268 CNS = tested on: SF-268 CNS
RPMI-8226 leukemia = tested on: RPMI-8226 leukemia
OVCAR-8 ovarian = tested on: OVCAR-8 ovarian
SN12C renal = tested on: SN12C renal
SK-OV-3 ovarian = tested on: SK-OV-3 ovarian
MCF7 breast = tested on: MCF7 breast
SK-MEL-28 melanoma = tested on: SK-MEL-28 melanoma
HT29 colon = tested on: HT29 colon
SNB-75 CNS = tested on: SNB-75 CNS
CCRF-CEM leukemia = tested on: CCRF-CEM leukemia
RXF 393 renal = tested on: RXF 393 renal
DU-145 prostate = tested on: DU-145 prostate
SK-MEL-5 melanoma = tested on: SK-MEL-5 melanoma
UACC-257 melanoma = tested on: UACC-257 melanoma
NCI-H226 lung = tested on: NCI-H226 lung
OVCAR-3 ovarian = tested on: OVCAR-3 ovarian
K-562 leukemia = tested on: K-562 leukemia
MDA-MB-231 breast = tested on: MDA-MB-231 breast
HCT-15 colon = tested on: HCT-15 colon
COLO 205 colon = tested on: COLO 205 colon
SW-620 colon = tested on: SW-620 colon
A549 NSCLC = tested on: A549 NSCLC
TK-10 renal = tested on: TK-10 renal
SF-539 CNS = tested on: SF-539 CNS
HL-60(TB) leukemia = tested on: HL-60(TB) leukemia
HOP-62 NSCLC = tested on: HOP-62 NSCLC
OVCAR-5 ovarian = tested on: OVCAR-5 ovarian
T-47D breast = tested on: T-47D breast

CNS(=O)(=O)Nc1nccc(Cc2c(C)c3ccc(Oc4ncccn4)cc3oc2=O)c1F
GI50 (MOLT-4 leukemia): 13 µM
TGI (MOLT-4 leukemia): 82.7 µM
GI50 (MDA-MB-468 breast): 1.75 µM
TGI (MDA-MB-468 breast): 5.95 µM
GI50 (M14 melanoma): < 0.01 µM
TGI (M14 melanoma): 0.102 µM
GI50 (IGROV1 ovarian): 0.29 µM
TGI (IGROV1 ovarian): > 100 µM
GI50 (PC-3 prostate): > 100 µM
TGI (PC-3 prostate): > 100 µM
GI50 (ACHN renal): 4.16 µM
TGI (ACHN renal): > 100 µM
GI50 (LOX IMVI melanoma): 0.164 µM
TGI (LOX IMVI melanoma): 5.49 µM
GI50 (NCI-H460 NSCLC): 10.2 µM
TGI (NCI-H460 NSCLC): > 100 µM
GI50 (MALME-3M melanoma): < 0.01 µM
TGI (MALME-3M melanoma): 0.0124 µM
GI50 (NCI-H23 lung): 0.0459 µM
TGI (NCI-H23 lung): 2.54 µM
GI50 (U251 glioblastoma): 5.57 µM
TGI (U251 glioblastoma): > 100 µM
GI50 (NCI-H522 lung): 12.5 µM
TGI (NCI-H522 lung): > 100 µM
GI50 (BT-549 breast): 39.6 µM
TGI (BT-549 breast): > 100 µM
GI50 (MDA-MB-435 melanoma): 0.0305 µM
TGI (MDA-MB-435 melanoma): > 100 µM
GI50 (SF-295 CNS): 68.6 µM
TGI (SF-295 CNS): > 100 µM
GI50 ([…]-0 renal): 98.4 µM
TGI (786-0 renal): > 100 µM
GI50 (SNB-19 CNS): 20.9 µM
TGI (SNB-19 CNS): > 100 µM
GI50 (NCI-H322M lung): 0.549 µM
TGI (NCI-H322M lung): > 100 µM
GI50 (A498 renal): 13.3 µM
TGI (A498 renal): > 100 µM
GI50 (UACC-62 melanoma): 0.012 µM
TGI (UACC-62 melanoma): 0.138 µM
GI50 (HCC-2998 colon): 0.0142 µM
TGI (HCC-2998 colon): 0.398 µM
GI50 (SR leukemia): 2.92 µM
TGI (SR leukemia): 40.9 µM
GI50 (OVCAR-4 ovarian): 0.413 µM
TGI (OVCAR-4 ovarian): > 100 µM
GI50 (CAKI-1 renal): 0.319 µM
TGI (CAKI-1 renal): > 100 µM
GI50 (KM12 colon): 0.181 µM
TGI (KM12 colon): > 100 µM
GI50 (UO-31 renal): 14 µM
TGI (UO-31 renal): > 100 µM
GI50 (EKVX NSCLC): 6.39 µM
TGI (EKVX NSCLC): > 100 µM
GI50 (NCI/ADR-RES ovarian): 15.2 µM
TGI (NCI/ADR-RES ovarian): > 100 µM
GI50 (HOP-92 NSCLC): 0.236 µM
TGI (HOP-92 NSCLC): 3.93 µM
GI50 (HS 578T breast): 7.8 µM
TGI (HS 578T breast): > 100 µM
GI50 (SF-268 CNS): > 100 µM
TGI (SF-268 CNS): > 100 µM
GI50 (RPMI-8226 leukemia): 0.0415 µM
TGI (RPMI-8226 leukemia): 20.5 µM
GI50 (OVCAR-8 ovarian): 39.2 µM
TGI (OVCAR-8 ovarian): > 100 µM
GI50 (SN12C renal): 0.0724 µM
TGI (SN12C renal): > 100 µM
GI50 (SK-OV-3 ovarian): 21.4 µM
TGI (SK-OV-3 ovarian): > 100 µM
GI50 (MCF7 breast): > 100 µM
TGI (MCF7 breast): > 100 µM
GI50 (SK-MEL-28 melanoma): 0.0137 µM
TGI (SK-MEL-28 melanoma): 0.0616 µM
GI50 (HT29 colon): 0.0418 µM
TGI (HT29 colon): > 100 µM
GI50 (SNB-75 CNS): > 100 µM
TGI (SNB-75 CNS): > 100 µM
GI50 (CCRF-CEM leukemia): 5.06 µM
TGI (CCRF-CEM leukemia): 49.1 µM
GI50 (RXF 393 renal): 4.82 µM
TGI (RXF 393 renal): > 100 µM
GI50 (DU-145 prostate): 26.4 µM
TGI (DU-145 prostate): > 100 µM
GI50 (SK-MEL-5 melanoma): 0.048 µM
TGI (SK-MEL-5 melanoma): 9.68 µM
GI50 (UACC-257 melanoma): 0.012 µM
TGI (UACC-257 melanoma): 0.0529 µM
GI50 (NCI-H226 lung): 0.848 µM
TGI (NCI-H226 lung): > 100 µM
GI50 (OVCAR-3 ovarian): > 100 µM
TGI (OVCAR-3 ovarian): > 100 µM
GI50 (K-562 leukemia): 0.433 µM
TGI (K-562 leukemia): > 100 µM
GI50 (MDA-MB-231 breast): 0.0731 µM
TGI (MDA-MB-231 breast): 43.8 µM
GI50 (HCT-15 colon): 4.39 µM
TGI (HCT-15 colon): > 100 µM
GI50 (COLO 205 colon): 0.0151 µM
TGI (COLO 205 colon): 0.586 µM
GI50 (SW-620 colon): 0.0167 µM
TGI (SW-620 colon): > 100 µM
GI50 (A549 NSCLC): 0.42 µM
TGI (A549 NSCLC): > 100 µM
GI50 (TK-10 renal): 7.49 µM
TGI (TK-10 renal): > 100 µM
GI50 (SF-539 CNS): 12.9 µM
TGI (SF-539 CNS): > 100 µM
GI50 (HL-60(TB) leukemia): < 0.01 µM
TGI (HL-60(TB) leukemia): > 100 µM
GI50 (HOP-62 NSCLC): 0.289 µM
TGI (HOP-62 NSCLC): > 100 µM
GI50 (OVCAR-5 ovarian): 0.041 µM
TGI (OVCAR-5 ovarian): > 100 µM
GI50 (T-47D breast): 3.67 µM
TGI (T-47D breast): 83.3 µM
